Experimental findings from ChEMBL document CHEMBL1121871, “Azaprostaglandin analogues. Synthesis and biological properties of 11-azaprostaglandin derivatives” (1981) are described below.

The species entered for one test is Cavia porcellus. As to the kind of experiment: Tested for activity of the 250 ng/ml compound to inhibit ADP-induced aggregation in guinea pig platelet rich plasma; Inactive. The test is classed as functional, organism-based.
For test [1], the species on record is Rattus norvegicus. As to the kind of experiment: Compound was tested for its activity to stimulate rat uterus at concentration of 2-10 e-6 g/mL; Showed very little stimulation. The format is functional, organism-based.
For test [2], the species on record is Rattus norvegicus. As to the kind of experiment: Tested for enhancement against rythemice contractions and tone of rat portal vein at concentrations ranging from 2*10e-6-1*10e-5 g/mL; Active. The test is classed as functional, organism-based.
Test [3] in a line: Compound was evaluated for the potency ratio in anesthetized rats. The test is classed as functional.

Active and inactive are the calls of the source. The rule behind the calls is not given here.

As to `CCCCC[C@@H](O)/C=C/[C@H]1NC(=O)C[C@@H]1CCCCCCC(=O)O`, the inhibition result in the test listed under Cavia porcellus is “inactive”. Moreover, the Activity entry in the test listed under Rattus norvegicus [1] was “very little stimulation”. Further, the Enhancement result in the test listed under Rattus norvegicus [2] is “Active”. The “Potency Ratio” value in test [3] was 0.13.
